Laboratory results as given in article PMC10557740 (bioRxiv, 2023).

Key:
[1] = target: 5-hydroxytryptamine 2A receptor (HTR2A) (Mus musculus, UniProt P35363); assay type: binding
[2] = target: HTR2A-A242S-EGFP-CT (humanized 5-hydroxytryptamine 2A receptor) (Mus musculus, UniProt P35363, A242S); assay: radioligand saturation binding on cortical crude membranes
HTR2A-A242S-EGFP-CT (humanized 5-hydroxytryptamine 2A receptor), sequence (P35363 1-452 A242S, other chains not shown): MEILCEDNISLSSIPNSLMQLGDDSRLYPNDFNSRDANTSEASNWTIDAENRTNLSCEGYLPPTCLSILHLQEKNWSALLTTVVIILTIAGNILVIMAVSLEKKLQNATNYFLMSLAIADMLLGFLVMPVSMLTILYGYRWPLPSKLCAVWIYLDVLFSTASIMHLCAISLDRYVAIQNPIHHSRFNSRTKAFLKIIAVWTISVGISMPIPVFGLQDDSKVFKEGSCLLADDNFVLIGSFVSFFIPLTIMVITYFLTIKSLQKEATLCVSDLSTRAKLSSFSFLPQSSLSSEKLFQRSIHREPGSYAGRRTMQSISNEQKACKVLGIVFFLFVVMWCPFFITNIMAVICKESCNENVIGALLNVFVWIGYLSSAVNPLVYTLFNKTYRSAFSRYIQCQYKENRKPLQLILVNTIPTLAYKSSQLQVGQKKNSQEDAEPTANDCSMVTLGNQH

5-hydroxytryptamine 2A receptor (HTR2A), sequence (P35363 whole entry): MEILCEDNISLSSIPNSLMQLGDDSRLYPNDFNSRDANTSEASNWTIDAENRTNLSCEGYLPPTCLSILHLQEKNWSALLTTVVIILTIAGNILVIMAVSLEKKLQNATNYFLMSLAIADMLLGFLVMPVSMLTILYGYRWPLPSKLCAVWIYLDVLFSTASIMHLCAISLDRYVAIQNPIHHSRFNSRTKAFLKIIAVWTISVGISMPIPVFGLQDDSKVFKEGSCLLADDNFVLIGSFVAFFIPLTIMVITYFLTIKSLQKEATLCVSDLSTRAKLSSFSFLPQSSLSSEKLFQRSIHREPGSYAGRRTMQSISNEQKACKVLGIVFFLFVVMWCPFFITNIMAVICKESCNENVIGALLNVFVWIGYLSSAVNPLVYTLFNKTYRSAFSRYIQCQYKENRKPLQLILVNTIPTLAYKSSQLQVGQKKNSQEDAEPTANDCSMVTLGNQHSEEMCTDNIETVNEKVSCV

Kd [1]: 1.09 ± 0.324 nM
Kd [2]: 2.38 ± 1.48 nM
Compound: O=C(c1ccc(F)cc1)C1CCN(CCn2c(=O)[nH]c3ccccc3c2=O)CC1 [[3H]-ketanserin]
